Test results published in paper PMC12535377, “Synaptic and intrinsic plasticity mediated by CCK-type signaling coordinates behavioral changes during motivational state shifts” (Cell reports, 2025).
Where two headings read alike, the source gives them in different places. Non-standard residues stand in square brackets, D forms with d. Residues, ends and D or L forms follow the SMILES beside them. sY = N[C@@H](Cc1ccc(OS(=O)(=O)O)cc1)C(=O)O

Assays:
[1] = molecular target: T1, apCCKR2 (Aplysia californica, UniProt A0ABM0ZX06); assay: IP1 accumulation assay, apCCKR2 in CHO-K1 cells; type: cell-based; conditions: CHO-K1 cells transfected with receptor and promiscuous Gαq
T1 sequence (A0ABM0ZX06 1-377): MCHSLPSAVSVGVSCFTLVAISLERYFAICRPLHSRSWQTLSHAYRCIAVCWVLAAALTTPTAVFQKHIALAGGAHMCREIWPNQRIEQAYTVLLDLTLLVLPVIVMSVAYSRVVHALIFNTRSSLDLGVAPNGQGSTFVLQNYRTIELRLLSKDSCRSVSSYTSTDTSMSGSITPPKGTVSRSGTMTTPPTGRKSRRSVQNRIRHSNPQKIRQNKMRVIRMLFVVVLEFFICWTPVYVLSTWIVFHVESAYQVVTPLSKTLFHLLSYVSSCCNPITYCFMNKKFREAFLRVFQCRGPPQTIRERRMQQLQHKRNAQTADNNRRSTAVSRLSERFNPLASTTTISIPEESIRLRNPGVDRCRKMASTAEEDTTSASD
Procedure: We tested receptor activation using the IP1 (inositol monophosphate) accumulation assay that measures IP1 generated in the Gαq pathway (see STAR Methods).
CHO-K1 cells were cultured in F-12K medium (Gibco, 21127–022) with 10% fetal bovine serum at 37°C in 5% CO2. Before transfection, cells were grown in 35 mm diameter tissue culture-treated dishes to 85% confluence. For transfection, 1.5 μg apCCKR plasmids or control plasmids (in pcDNA3.1(+) vector) and 1.5 μg promiscuous Gαq-family protein (in pcDNA3.1(+) vector) were mixed with 200 μL Opti-MEM (Gibco, 11058021), and 8 μL Turbofect (Thermo Fisher Scientific, R0531). This promiscuous Gαq protein contains substitutions to increase promiscuity,[148] and could bind to most GPCRs, ensuring an IP1 response when a potential ligand binds to its specific GPCR, irrespective of the GPCR’s normal association with any specific Gα proteins. The DNA mixture was incubated at room temperature for 15 min and then added dropwise to the cells in F-12K medium with 10% FBS (no antibiotics), followed by incubation at 37°C in 5% CO2 overnight. The next day, cells were detached using trypsin and reseeded in white 96-well half-area tissue culture-treated plates (Corning, 3688) at a density of 20,000 cells per well in F-12K and 10% FBS, and incubated at 37°C in 5% CO2 overnight. Activation of putative apCCK or related receptor was detected by monitoring IP1 accumulation using IPOne Detection Kit (Cisbio, 62IPAPEB), as previously described.[64],[65],[141],[149],[150]
Dose-response curves and bar graphs for experimental data were plotted using Prism software (GraphPad version 8). Data are presented as mean ± SEM of at least three independent experiments, except that LogEC50 values reported in the main text are the mean ± standard deviation (SD) from at least three independent experiments. Statistical tests were performed using Prism software. They included Student’s t-test, one-way or two-way ANOVA, as appropriate. […] Electrophysiological recordings were digitized online using AxoScope software version 10.7 (Molecular Devices, LLC, Sunnyvale, CA) and were plotted by CorelDraw version 2018 (Corel Corp., Ottawa, Canada).

[2] = test system: CBI-2-elicited feeding motor programs; assay: CBI-2-elicited feeding motor programs in isolated cerebral and buccal ganglia; design: species or system Aplysia californica; conditions: for Protraction duration of CBI-2 programs: 10^-6 M and 10^-5 M tested; for B8 activity (frequency) during retraction: CBI-2 programs, 10^-6 M and 10^-5 M; for Feeding program effect, summary grade: Table S1 summary in words
Procedure: To explore the neural basis of the behavioral effects of apCCKs, we examined their modulation of feeding-motor programs in isolated ganglia. All eight forms of apCCKs were tested on programs induced by CBI-2, a command-like interneuron that is active during food-elicited feeding behavior[56] and provides potent excitatory inputs to buccal central pattern generator (CPG) interneurons,[54],[77] orchestrating ingestive motor programs (Figure S23A). Stable single-cycle motor programs were evoked by stimulating CBI-2 at 8–10 Hz throughout the protraction phase with a 90-s intertrial interval. Two concentrations, 10^−6 M and 10^−5 M, of apCCKs were tested.
Intracellular and extracellular recordings were made as described previously.[57]–[59],[61],[151] To prevent movements of ganglia caused by myoactive apCCK (especially [sY8]-apCCK1 and [sY6, sY8]-apCCK1) during bath application, we treated the ganglia with 0.8% protease IX for 1–2 min prior to desheathing. Subsequently, ganglia were desheathed, transferred to a recording chamber containing ~1.5 mL of ASW (460 mM NaCl, 10 mM KCl, 11mM CaCl2, 55 mM MgCl2, and 10 mM HEPES, pH 7.6), continuously perfused at 0.3 mL/min, and maintained at 14°C–17°C. The experiments examining the effects of apCCKs on excitability of B20/B34/B61/62/B65/B64 neurons were performed in a high divalent saline (368 mM NaCl, 8 mM KCl, 13.8 mM CaCl2, 115 mM MgCl2, and 10 mM HEPES, pH 7.6), which increases the spiking threshold of neurons and therefore curtails polysynaptic influences. Intracellular recordings were obtained using 5–10 MΩ sharp microelectrodes filled with an electrolyte (0.6 M K2SO4 plus 60 mM KCl). Extracellular recordings were acquired from polyethylene suction electrodes. Grass S88 and WPI Pulsemaster A300 stimulators were used to provide timing signals for intracellular and extracellular stimulation. To determine the effects of various forms of apCCKs on Aplysia feeding programs, we performed experiments with the cerebral and buccal ganglia. Freshly made apCCK solution in ASW was perfused into the recording chamber. Feeding-motor programs were elicited by stimulation of command-like neuron CBI-2 at 8–10 Hz or stimulation of the EN at 2 Hz, 3 ms, 15 V, and were monitored by bursting activity of the I2 nerve of the buccal ganglion.[58],[59],[61] Typically, we recorded from motor neuron B8, and one interneuron, e.g., B40 or B20. To determine effects of apCCKs on synaptic strength, we stimulated presynaptic neuron, CBI-2, B34 (plus 1 nA current) or B65 at 10 Hz for 2 s for several trials and waited 1 min between each trial. The stimulation duration for each trial was set at 2 s because this allows the expression of synaptic facilitation without evoking too many spikes. Typically, the amplitude of the last EPSP at each concentration of peptides was quantified unless otherwise stated.

[3] = log[EC50] with negative sign, mean ± SD, at least three independent experiments, SD, read-out: apCCKR2: log[EC50] (converted)
[4] = average of at least three independent experiments, read-out: apCCKR2: EC50

Molecule	EC50 [1, 3]	Protraction duration of CBI-2 programs [2]	B8 activity (frequency) during retraction [2]	Feeding program effect, summary grade [2]	EC50 [1, 4]
CC[C@H](C)[C@H](NC(=O)CNC(=O)[C@H](Cc1ccc(OS(=O)(=O)O)cc1)NC(=O)[C@H](CC(=O)O)NC(=O)CNC(=O)[C@H](Cc1ccc(OS(=O)(=O)O)cc1)NC(=O)[C@@H](N)CO)C(=O)NCC(=O)NCC(=O)NCC(=O)N[C@@H](CCCNC(=N)N)C(=O)N[C@@H](Cc1ccccc1)C(N)=O [[sY2, sY5]-apCCK2] (H-S[sY]GD[sY]GIGGGRF-NH2)	355 nM	shortened	reduced	Weak	–
CC[C@H](C)[C@H](NC(=O)CNC(=O)[C@H](Cc1ccc(O)cc1)NC(=O)[C@H](CC(=O)O)NC(=O)CNC(=O)[C@H](Cc1ccc(OS(=O)(=O)O)cc1)NC(=O)[C@@H](N)CO)C(=O)NCC(=O)NCC(=O)NCC(=O)N[C@@H](CCCNC(=N)N)C(=O)N[C@@H](Cc1ccccc1)C(N)=O [[sY2]-apCCK2] (H-S[sY]GDYGIGGGRF-NH2)	1100 nM	–	–	No effect	1400 nM
CC[C@H](C)[C@H](NC(=O)CNC(=O)[C@H](Cc1ccc(OS(=O)(=O)O)cc1)NC(=O)[C@H](CC(=O)O)NC(=O)CNC(=O)[C@H](Cc1ccc(O)cc1)NC(=O)[C@@H](N)CO)C(=O)NCC(=O)NCC(=O)NCC(=O)N[C@@H](CCCNC(=N)N)C(=O)N[C@@H](Cc1ccccc1)C(N)=O [[sY5]-apCCK2] (H-SYGD[sY]GIGGGRF-NH2)	38.9 nM	shortened	reduced	Moderate	49 nM
H-SYGDYGIGGGRF-NH2 [apCCK2]	–	–	–	No effect	> 10000 nM
